Source: ChEMBL document CHEMBL4385652, “Discovery of a novel orally active TRPV4 inhibitor: Part 1. Optimization from an HTS hit” (Bioorg Med Chem, 2019)

What was measured:
[1] = physchem; conditions: 1-octanol/phosphate buffer, pH 7.4
[2] = in vitro; conditions: rat, pooled liver microsomes
[3] = in vitro; conditions: human, pooled liver microsomes

Structure (SMILES) | logD [1] | CLint scaled at 0.75 h, 0.2 µM [2] [L/h/kg] | CLint scaled at 0.75 h, 0.2 µM [3] [L/h/kg]
COc1cc(OC)cc(C(=O)Nc2nc(C3CC3)c(N3CCN(C)CC3)s2)c1 | 4 | – | –
COc1cc(OC)cc(C(=O)Nc2nc(-c3cccnc3)c(N3CCN(C)CC3)s2)c1 | 4.1 | – | –
COc1cc(OC)cc(C(=O)Nc2nc(C3CCC3)c(N3CCN(C)CC3)s2)c1 | 4.6 | – | –
COc1cc(OC)cc(C(=O)Nc2nc(-c3ccccc3)c(CCCN3CCN(C)CC3)s2)c1 | 4.1 | – | –
COc1cc(OC)cc(C(=O)Nc2nc(-c3ccncc3)c(N3CCN(C)CC3)s2)c1 | 4.1 | – | –
COc1cc(OC)cc(C(=O)Nc2nc(-c3ccccc3)c(CN3CCCCC3)s2)c1 | 4.9 | – | –
COc1cc(OC)cc(C(=O)Nc2nc(-c3ccccc3)c(CCCN3CCOCC3)s2)c1 | 4.7 | – | –
COc1cc(OC)cc(C(=O)Nc2nc(-c3ccccn3)c(N3CCN(C)CC3)s2)c1 | 3.7 | – | –
COc1cc(OC)cc(C(=O)Nc2nc(-c3ccccc3)c(C3CCN(C)CC3)s2)c1 | 3.6 | – | –
COc1cc(OC)cc(C(=O)Nc2nc(-c3ccccc3)c(CCCN(C)C)s2)c1 | 3.5 | – | –

Other lines, results leading:

logD [1] | CLint scaled at 0.75 h, 0.2 µM [2] [L/h/kg] | CLint scaled at 0.75 h, 0.2 µM [3] [L/h/kg] | Structure (SMILES)
4.1 | > 60 | 31.6 | Cc1c(C(=O)Nc2nc(C3CCC3)c(CCN3CCCCC3)s2)cnn1-c1ccc(F)cc1
4.8 | – | – | Cc1c(C(=O)Nc2nc(C3CCC3)c(N3CCN(C)CC3)s2)cnn1-c1ccc(F)cc1
4.9 | – | – | CN1CCN(c2sc(NC(=O)c3cc(-c4ccccc4)n(C)n3)nc2C2CCC2)CC1
4.5 | 47.9 | 7.2 | Cc1nn(-c2ccc(F)cn2)cc1C(=O)Nc1nc(C2CCC2)c(CCN2CCCCC2)s1
4 | – | – | Cc1c(C(=O)Nc2nc(C3CCC3)c(N3CCN(C)CC3)s2)cnn1-c1ccc(C#N)cc1
4.3 | – | – | Cc1c(C(=O)Nc2nc(C3CCC3)c(N3CCN(C)CC3)s2)cnn1C1CCC(F)(F)CC1
4.1 | – | – | COc1cc(OC)cc(C(=O)Nc2nc(-c3ccccc3)c(CCCN3CCCCC3)s2)c1
